Reference: article PMC13249053, “Mechanism of auranofin toxicity: Inhibition of tetrahydrobiopterin metabolism” (Toxicology and applied pharmacology, 2025)
Where a chain is given by its changes, count along the chain named.

Columns and labels:
Assay type in all cases: cell-based
DHFR [1] = target: T1, DHFR (Rattus norvegicus, UniProt Q920D2); test: Cellular DHFR activity: BH4 formation from BH2, PC12 cells; settings: PC12 (rat pheochromocytoma)
T1 construct: endogenous in cells; host or cells: PC12
T1 sequence (Q920D2 1-187): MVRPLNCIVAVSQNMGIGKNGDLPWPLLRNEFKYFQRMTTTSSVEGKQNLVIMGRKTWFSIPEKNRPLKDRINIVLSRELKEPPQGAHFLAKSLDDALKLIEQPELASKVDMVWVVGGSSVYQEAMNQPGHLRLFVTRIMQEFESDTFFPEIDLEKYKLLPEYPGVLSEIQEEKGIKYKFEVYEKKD
Procedure: (§1) The growth medium was then removed and the cells incubated with growth medium containing 100 μM sepiapterin. […] BH2 and BH4 were then analyzed on a Jasco high-performance liquid chromatography system (Easton, MD) fitted with a Maxsil-10 C18 column (250 × 4 mm; Phenomenex, Torrance, CA). […] Cell viability following drug treatments was greater than 95 %.

DHFR [2] = target: T2, DHFR (Mus musculus, UniProt P00375); test: Cellular DHFR activity: BH4 formation from BH2, RAW264.7 cells; settings: RAW264.7 (mouse macrophage)
T2 construct: endogenous in cells; host or cells: RAW264.7
T2 sequence (P00375 1-187): T1 sequence (Q920D2 1-187) with L27P, Q85R, K99R, V115I, E155G, I170V
Procedure: as §1

SPR = SPR (Homo sapiens, UniProt P35270); test: BH2 and BH4 production from sepiapterin in intact HaCaT cells (HPLC); set-up: endogenous in cells; host or cells: HaCaT, Jurkat, BeWo, SKNMC, CX-1; settings: auranofin 2 h, then 100 μM sepiapterin 3 h, read-out: IC50, inhibition of SPR (BH2+BH4 formation) in intact HaCaT cells
Sequence of SPR (P35270 whole entry): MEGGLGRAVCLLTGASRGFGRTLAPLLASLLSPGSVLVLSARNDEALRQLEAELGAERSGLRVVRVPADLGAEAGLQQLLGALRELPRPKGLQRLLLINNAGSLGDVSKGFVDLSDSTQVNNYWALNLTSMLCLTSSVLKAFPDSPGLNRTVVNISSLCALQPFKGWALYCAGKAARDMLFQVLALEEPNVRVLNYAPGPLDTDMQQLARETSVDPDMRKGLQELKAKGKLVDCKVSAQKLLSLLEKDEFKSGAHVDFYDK
Procedure: as §1
Fig. 3. Effects of auranofin on BH2 and BH4 production in intact HaCaT cells treated with sepiapterin. HaCaT cells (~1 × 10^6 cells/well in 6 well culture plates) were incubated with control medium or medium containing increasing concentrations of auranofin for 2 h followed by 100 μM sepiapterin. After an additional 3 h, BH2 and BH4 were extracted from the cells and analyzed by HPLC with fluorescence detection. Left panel: Chromatograms showing BH2 and BH4 content of control cells and cells treated with Auranofin.

Compound: CC[PH](CC)(CC)[Au][S][C@@H]1O[C@H](COC(C)=O)[C@@H](OC(C)=O)[C@H](OC(C)=O)[C@H]1OC(C)=O [auranofin, 2,3,4,6-tetra-O-acetyl-1-thio-β-D-glucopyranosato-S-triethyl phosphine gold]
- IC50 (DHFR [1]): 0.87 ± 0.09 µM
- IC50 (DHFR [2]): 17.2 ± 0.63 µM
- IC50 (SPR): 12.8 µM
